Reference: paper PMC4642847, “The PDB database is a rich source of alpha-helical anti-microbial peptides to combat disease causing pathogens” (F1000Research, 2015)
Where no end group is shown, it is not given here.

Assays:
[1] = system: Xylella fastidiosa 3A2 (Xf)
[2] = system: Xanthomonas arboricola 417 (Xa)
[3] = system: Liberibacter crescens BT-1 (Lc)

Row | Sequence | Minimum Inhibitory Concentration [1] | Minimum Inhibitory Concentration [2] | Minimum Inhibitory Concentration [3]
1 | TLDELELFTDAVERW [ISS15] | >300 >300 µM | >300 >300 µM | >300 µM
2 | TIWKGVPKFLRRVDTALKNI [PPC20] | 150 50 µM |  | 200 µM
3 | WKVFKKIEKMGRNIRNGIVKA [CBNT21, reference compound] | 200 25 µM |  | 200 µM
4 | TAYGIMARQPNSRKSFIDSSIRLAR [CHITI25] | 100 150 µM | 100 150 µM | >300 µM
5 | KWKVFKKIEKMGRNIRNGIVKAGPAIAVLGEAKAL [CECB, Cecropin B, reference compound] | 100 25 µM |  | 100 µM
